Laboratory results from ChEMBL document CHEMBL1201862, “PubChem BioAssay data set” (2004).
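Five concentrations, 48 hours, 96-well plates. GI50 = concentration required for 50% inhibition of growth.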 Active and inactive are the calls of the source. No stated cut-off is given here; in the data, active = GI50 up to about 1.1 µM and inactive = higher.

Legend:
Assay in all cases: NCI anticancer screen, dose series, 48 h
[1] = test system: SN12C
[2] = test system: DU-145
[3] = test system: CAKI-1
[4] = test system: OVCAR-3
[5] = test system: HL-60
[6] = test system: MDA-N
[7] = test system: U-251
[8] = test system: PC-3
[9] = test system: HCT-116
[10] = test system: SK-MEL-2
[11] = test system: SW-620
[12] = test system: SR
[13] = test system: SK-OV-3
[14] = test system: OVCAR-8
[15] = test system: KM12
[16] = test system: MCF7
[17] = test system: SK-MEL-5
[18] = test system: HCT-15
[19] = test system: HOP-92
[20] = test system: MOLT-4
[21] = test system: SF-295
[22] = test system: SNB-75
[23] = test system: NCI/ADR-RES
[24] = test system: COLO 205
[25] = test system: OVCAR-4
[26] = test system: BT-549
[27] = test system: TK-10
[28] = test system: OVCAR-5
[29] = test system: NCI-H23
[30] = test system: SNB-19
[31] = test system: UACC-257
[32] = test system: A498
[33] = test system: M14
[34] = test system: IGROV-1
[35] = test system: HCC 2998
[36] = test system: Hs-578T
[37] = test system: HT-29
[38] = test system: RXF 393
[39] = test system: NCI-H460
[40] = test system: K562
[41] = test system: CCRF-CEM
[42] = test system: MDA-MB-435
[43] = test system: UACC-62
[44] = test system: MDA-MB-231
[45] = test system: LOX IMVI
[46] = test system: Malme-3M
[47] = test system: NCI-H226
[48] = test system: T47D
[49] = test system: UO-31
[50] = test system: HOP-62
[51] = test system: RPMI-8226
[52] = test system: SK-MEL-28

SMILES: CCCOC1OC(CS(=O)(=O)O)C(OC(C)=O)C(OC(C)=O)C1OC(C)=O (configuration not stated)
- GI50 [1]: > 100 µM (inactive)
- GI50 [2]: > 100 µM (inactive)
- GI50 [3]: > 100 µM (inactive)
- GI50 [4]: > 100 µM (inactive)
- GI50 [5]: > 100 µM (inactive)
- GI50 [6]: > 100 µM (inactive)
- GI50 [7]: > 100 µM (inactive)
- GI50 [8]: > 100 µM (inactive)
- GI50 [9]: > 100 µM (inactive)
- GI50 [10]: > 100 µM (inactive)
- GI50 [11]: > 100 µM (inactive)
- GI50 [12]: > 100 µM (inactive)
- GI50 [13]: > 100 µM (inactive)
- GI50 [14]: > 100 µM (inactive)
- GI50 [15]: > 100 µM (inactive)
- GI50 [16]: > 100 µM (inactive)
- GI50 [17]: > 100 µM (inactive)
- GI50 [18]: > 100 µM
- GI50 [19]: > 100 µM (inactive)
- GI50 [20]: > 100 µM (inactive)
- GI50 [21]: > 100 µM (inactive)
- GI50 [22]: > 100 µM (inactive)
- GI50 [23]: > 100 µM (inactive)
- GI50 [24]: > 100 µM (inactive)
- GI50 [25]: > 100 µM (inactive)
- GI50 [26]: > 100 µM (inactive)
- GI50 [27]: > 100 µM (inactive)
- GI50 [28]: > 100 µM (inactive)
- GI50 [29]: > 100 µM (inactive)
- GI50 [30]: > 100 µM (inactive)
- GI50 [31]: > 100 µM (inactive)
- GI50 [32]: > 100 µM (inactive)
- GI50 [33]: > 100 µM (inactive)
- GI50 [34]: > 100 µM (inactive)
- GI50 [35]: > 100 µM (inactive)
- GI50 [36]: > 100 µM (inactive)
- GI50 [37]: > 100 µM (inactive)
- GI50 [38]: > 100 µM (inactive)
- GI50 [39]: > 100 µM (inactive)
- GI50 [40]: > 100 µM (inactive)
- GI50 [41]: > 100 µM (inactive)
- GI50 [42]: > 100 µM (inactive)
- GI50 [43]: > 100 µM (inactive)
- GI50 [44]: > 100 µM (inactive)
- GI50 [45]: > 100 µM (inactive)
- GI50 [46]: > 100 µM (inactive)
- GI50 [47]: > 100 µM (inactive)
- GI50 [48]: > 100 µM (inactive)
- GI50 [49]: > 100 µM (inactive)
- GI50 [50]: > 100 µM (inactive)
- GI50 [51]: > 100 µM (inactive)
- GI50 [52]: > 100 µM (inactive)
